In PubChem BioAssay AID236 (DTP/NCI, 2004):
“And” between values parts separate entries of the source, which are not always exact repeats. Equal entries are not always repeated. Inconclusive results and toxic doses are left out. Starred links: 1 amine or outer side, 2 acyl side, 3 side chain; linkers in the order of their positions; H or OH if unused. Positions of bridges follow the written chain, without caps; N, C: chain ends. Non-standard residues stand in square brackets, D forms with d. Residues, ends and D or L forms follow the SMILES beside them. Chains are numbered I, II in the order given. Actinocin(9to1) = Cc1c2oc3c(C)ccc(C(=O)[*:1])c3nc-2c(C(=O)[*:2])c(N)c1=O; aThr = C[C@H](O)[C@H](N)C(=O)O; NMeV = CN[C@H](C(=O)O)C(C)C; Sar = CNCC(=O)O

Tested on: AK4 lymphoid leukemia ip, C3AKF1 mice, survival
Test: NCI In Vivo Anticancer Drug Screen. Data for tumor model AK4 Lymphoid Leukemia (intraperitoneal) in C3AKF1 (CHKRF1) mice
Settings: endpoint: median survival time, higher = longer survival
Description: The antitumor activity of compounds was measured in mice bearing transplantable tumors. Survival or tumor size were measured and the results are expressed as the measurement made in the treated group (T) divided by the measurement made in the vehicle treated control group (C). The tumor model used in this assay is AK4 Lymphoid Leukemia (intraperitoneal) in C3AKF1 (CHKRF1) mice

[1] = dose: 16.0 mg/kg/injection, schedule: Q01DX010 (ip), vehicle: saline
[2] = dose: 1.5 mg/kg/injection, schedule: Q01DX010 (ip), vehicle: saline
[3] = dose: 3.0 mg/kg/injection, schedule: Q01DX010 (ip), vehicle: saline
[4] = dose: 6.0 mg/kg/injection, schedule: Q01DX010 (ip), vehicle: saline
[5] = dose: 25.0 mg/kg/injection, schedule: Q01DX010 (ip), vehicle: saline
[6] = dose: 50.0 mg/kg/injection, schedule: Q01DX010 (ip), vehicle: saline
[7] = dose: 100.0 mg/kg/injection, schedule: Q01DX010 (ip), vehicle: saline
[8] = dose: 200.0 mg/kg/injection, schedule: Q01DX010 (ip), vehicle: saline
[9] = dose: 5.0 mg/kg/injection, schedule: Q01DX010 (ip), vehicle: saline
[10] = dose: 10.0 mg/kg/injection, schedule: Q01DX010 (ip), vehicle: saline
[11] = dose: 20.0 mg/kg/injection, schedule: Q01DX010 (ip), vehicle: saline
[12] = dose: 40.0 mg/kg/injection, schedule: Q01DX010 (ip), vehicle: saline

In the case of CCCCn1cnc2c(=S)nc[nH]c21, the T/C [1] was 100 % of control, the T/C (dose: 32.0 mg/kg/injection, schedule: Q01DX010 (ip), vehicle: saline) was 90 % of control and 122 % of control and the T/C (dose: 64.0 mg/kg/injection, schedule: Q01DX010 (ip), vehicle: saline) was 90 % of control and 111 % of control. For the same compound, the T/C (dose: 128.0 mg/kg/injection, schedule: Q01DX010 (ip), vehicle: saline) was 94 % of control and 100 % of control.
For CN(C)c1ccc(/C=C\c2ccnc3ccccc23)cc1, the T/C [2] was 100 % of control, the T/C [3] was 100 % of control and the T/C [4] was 100 % of control. For the same compound, the T/C (dose: 12.0 mg/kg/injection, schedule: Q01DX010 (ip), vehicle: saline) was 100 % of control.
For S=P(N1CC1)(N1CC1)N1CC1, the T/C (dose: 0.75 mg/kg/injection, schedule: Q01DX010 (ip), vehicle: saline) was 104 % of control and 105 % of control, the T/C [2] was 100 % of control and 105 % of control and the T/C [3] was 95 % of control and 104 % of control. The T/C [4] was 105 % of control and 109 % of control.
For NC(=O)N(CCCl)N=O, the T/C (dose: 0.5 mg/kg/injection, schedule: Q01DX010 (ip), vehicle: saline) was 162 % of control, the T/C (dose: 1.0 mg/kg/injection, schedule: Q01DX010 (ip), vehicle: saline) was 168 % of control and 200 % of control and the T/C (dose: 4.0 mg/kg/injection, schedule: Q01DX010 (ip), vehicle: saline) was 87 % of control.
For CSc1ncnc2nc[nH]c12, the T/C [5] was 100 % of control, the T/C [6] was 100 % of control and the T/C [7] was 100 % of control. For the same compound, the T/C [8] was 100 % of control.
For CS(=O)(=O)OCCCCOS(C)(=O)=O, the T/C (dose: 6.25 mg/kg/injection, schedule: Q01DX010 (ip), vehicle: saline) was 87 % of control and 100 % of control, the T/C (dose: 12.5 mg/kg/injection, schedule: Q01DX010 (ip), vehicle: saline) was 100 % of control and 87 % of control and the T/C [5] was 100 % of control. The T/C [6] was 87 % of control and 100 % of control.
For CC(=O)O[C@]1(C(C)=O)CC[C@H]2[C@@H]3C[C@H](C)C4=CC(=O)C=C[C@]4(C)[C@@]3(F)[C@@H](O)C[C@@]21C, the T/C (dose: 12.5 mg/kg/injection, schedule: Q01DX010 (sc), vehicle: steriod suspending solution) was 100 % of control, the T/C (dose: 25.0 mg/kg/injection, schedule: Q01DX010 (sc), vehicle: steriod suspending solution) was 100 % of control and the T/C (dose: 50.0 mg/kg/injection, schedule: Q01DX010 (sc), vehicle: steriod suspending solution) was 111 % of control. The T/C (dose: 100.0 mg/kg/injection, schedule: Q01DX010 (sc), vehicle: steriod suspending solution) was 88 % of control and 100 % of control.
In the case of CN(C)CC(=O)c1ccc(O)c(O)c1, the T/C [8] was 112 % of control, the T/C (dose: 300.0 mg/kg/injection, schedule: Q01DX010 (ip), vehicle: saline) was 100 % of control and the T/C (dose: 450.0 mg/kg/injection, schedule: Q01DX010 (ip), vehicle: saline) was 112 % of control. The T/C (dose: 675.0 mg/kg/injection, schedule: Q01DX010 (ip), vehicle: saline) was 118 % of control.
For Cc1c2oc3c(C)ccc(C(=O)N[C@@H]4C(=O)N[C@H](C(C)C)C(=O)N5CCC[C@H]5C(=O)N(C)CC(=O)N(C)[C@@H](C(C)C)C(=O)O[C@H]4C)c3nc-2c(C(=O)N[C@@H]2C(=O)N[C@H](C(C)C)C(=O)N3CCC[C@H]3C(=O)N(C)CC(=O)N(C)[C@@H](C(C)C)C(=O)O[C@H]2C)c(N)c1=O (I: [aThr][dV]P[Sar][NMeV] / II: [aThr][dV]P[Sar][NMeV]; ester I:1-I:C, II:1-II:C; linker I:N-II:N via Actinocin(9to1)), the T/C (dose: 12.5 micrograms/kg/injection, schedule: Q01DX010 (ip), vehicle: other) was 100 % of control and 86 % of control, the T/C (dose: 25.0 micrograms/kg/injection, schedule: Q01DX010 (ip), vehicle: other) was 95 % of control and 105 % of control and the T/C (dose: 50.0 micrograms/kg/injection, schedule: Q01DX010 (ip), vehicle: other) was 100 % of control. For the same compound, the T/C (dose: 100.0 micrograms/kg/injection, schedule: Q01DX010 (ip), vehicle: other) was 100 % of control and 109 % of control.
In the case of O=C1C(NC(=O)C2CCCCC2)=C(N2CC2)C(=O)C(NC(=O)C2CCCCC2)=C1N1CC1, the T/C [5] was 90 % of control, the T/C [6] was 95 % of control and 100 % of control and the T/C [7] was 95 % of control and 100 % of control. The T/C [8] was 100 % of control and 110 % of control and the T/C (dose: 400.0 mg/kg/injection, schedule: Q01DX010 (ip), vehicle: saline) was 116 % of control.
CN(C)c1ccc(/C=C/c2ccnc3ccccc23)cc1 was tested, and the T/C [9] was 111 % of control, the T/C [10] was 105 % of control and the T/C [11] was 94 % of control. The T/C [12] was 100 % of control.
c1ccc(CCSc2ncnc3nc[nH]c23)cc1 was tested, and the T/C (dose: 62.5 mg/kg/injection, schedule: Q01DX010 (ip), vehicle: saline) was 100 % of control, the T/C (dose: 125.0 mg/kg/injection, schedule: Q01DX010 (ip), vehicle: saline) was 100 % of control and the T/C (dose: 250.0 mg/kg/injection, schedule: Q01DX010 (ip), vehicle: saline) was 100 % of control. For the same compound, the T/C (dose: 500.0 mg/kg/injection, schedule: Q01DX010 (ip), vehicle: saline) was 100 % of control.
In the case of NC(Cc1ccc(N(CCCl)CCCl)cc1)C(=O)O (configuration not stated), the T/C (dose: 2.0 mg/kg/injection, schedule: Q01DX010 (ip), vehicle: saline) was 150 % of control, the T/C (dose: 2.5 mg/kg/injection, schedule: Q01DX010 (ip), vehicle: saline) was 164 % of control and the T/C [9] was 164 % of control. The T/C (dose: 8.0 mg/kg/injection, schedule: Q01DX010 (ip), vehicle: saline) was 150 % of control, the T/C [10] was 158 % of control and the T/C [1] was 100 % of control. The T/C [11] was 117 % of control.
In the case of CN(N=O)C(N)=O, the T/C [10] was 162 % of control, the T/C [11] was 225 % of control and the T/C [12] was 112 % of control.
With CC[C@@H](c1ccc(O)cc1)[C@@H](CC)c1ccc(O)cc1 the T/C (dose: 25.0 mg/kg/injection, schedule: Q01DX010 (ip), vehicle: water) was 100 % of control, the T/C (dose: 50.0 mg/kg/injection, schedule: Q01DX010 (ip), vehicle: water) was 87 % of control and the T/C (dose: 100.0 mg/kg/injection, schedule: Q01DX010 (ip), vehicle: water) was 87 % of control. For the same compound, the T/C (dose: 200.0 mg/kg/injection, schedule: Q01DX010 (ip), vehicle: water) was 87 % of control.
